#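 Following 48 hours of exposure in 96-well plates, responses at five concentrations were used to interpolate endpoints linearly. The concentration for 50% growth inhibition is given as GI50.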 Activity calls are given as the source filed them. No stated cut-off is given here; in the data, active = GI50 up to about 1.1 µM and inactive = higher. Where a SMILES comes first, the peptide text is derived from it. [ ]: non-standard residue; d: D form. The star is where a group is joined. mTyr = N[CH](Cc1cccc(O)c1)C(=O)O; Cbz = O=C(OCc1ccccc1)*; OBn = c1ccc(CO*)cc1
# Tests used:
# Assay in all cases: DTP human tumour cell line panel, 48 h
# HT-29 = tested on: HT-29
# UO-31 = tested on: UO-31
# OVCAR-4 = tested on: OVCAR-4
# SNB-19 = tested on: SNB-19
# SK-OV-3 = tested on: SK-OV-3
# BT-549 = tested on: BT-549
# SW-620 = tested on: SW-620
# NCI-H23 = tested on: NCI-H23
# MDA-N = tested on: MDA-N
# SF-295 = tested on: SF-295
# LOX IMVI = tested on: LOX IMVI
# HCT-15 = tested on: HCT-15
# HOP-62 = tested on: HOP-62
# NCI-H226 = tested on: NCI-H226
# NCI-H522 = tested on: NCI-H522
# U-251 = tested on: U-251
# SK-MEL-28 = tested on: SK-MEL-28
# SF-539 = tested on: SF-539
# SR = tested on: SR
Structure (SMILES),GI50 (HT-29),GI50 (UO-31),GI50 (OVCAR-4),GI50 (SNB-19),GI50 (SK-OV-3),GI50 (BT-549),GI50 (SW-620),GI50 (NCI-H23),GI50 (MDA-N),GI50 (SF-295),GI50 (LOX IMVI),GI50 (HCT-15),GI50 (HOP-62),GI50 (NCI-H226),GI50 (NCI-H522),GI50 (U-251),GI50 (SK-MEL-28),GI50 (SF-539),GI50 (SR)
Cn1c(N)c(/C=C/C(=O)Oc2ccccc2)c(=O)n(C)c1=O,> 100 µM (inactive),49.7 µM (inactive),> 100 µM (inactive),59.3 µM (inactive),56.5 µM (inactive),> 100 µM (inactive),> 100 µM (inactive),> 100 µM (inactive),> 100 µM (inactive),33.7 µM (inactive),> 100 µM (inactive),> 100 µM,19.1 µM (inactive),47.4 µM (inactive),> 100 µM (inactive),52.8 µM (inactive),> 100 µM (inactive),50.8 µM (inactive),–
CC(=O)O[C@H]1CC2C(C3CCC(C(C)CCC(N)=O)[C@]31C)[C@H](OC(C)=O)C[C@@H]1CC3(CC[C@]21C)OOC1(CC[C@]2(C)C4C[C@H](OC(C)=O)[C@]5(C)C(C(C)CCC(N)=O)CCC5C4[C@H](OC(C)=O)C[C@@H]2C1)OO3 (some centres undefined),1.63 µM (inactive),1.13 µM (inactive),1.83 µM (inactive),2.61 µM (inactive),2.06 µM (inactive),1.2 µM (inactive),2.63 µM (inactive),1.49 µM (inactive),1.65 µM (inactive),1.53 µM (inactive),1.4 µM (inactive),1.48 µM,2.01 µM (inactive),1.33 µM (inactive),2.18 µM (inactive),1.6 µM (inactive),–,–,–
CC(C)OCC(O)COc1ccc2ccc(=O)oc2c1 (centres undefined),> 100 µM (inactive),> 100 µM (inactive),> 100 µM (inactive),> 100 µM (inactive),> 100 µM (inactive),–,> 100 µM (inactive),> 100 µM (inactive),> 100 µM (inactive),> 100 µM (inactive),> 100 µM (inactive),> 100 µM,> 100 µM (inactive),–,> 100 µM (inactive),> 100 µM (inactive),> 100 µM (inactive),–,–
FC1(F)[Se]C2C3CCC(C3)C2C1(F)F (centres undefined),–,> 100 µM (inactive),> 100 µM (inactive),> 100 µM (inactive),> 100 µM (inactive),–,> 100 µM (inactive),–,> 100 µM (inactive),35.2 µM (inactive),> 100 µM (inactive),> 100 µM,> 100 µM (inactive),> 100 µM (inactive),> 100 µM (inactive),> 100 µM (inactive),> 100 µM (inactive),> 100 µM (inactive),> 100 µM (inactive)
COC(=O)C(Cc1cccc(O)c1)NC(=O)C(CC(=O)OCc1ccccc1)NC(=O)OCc1ccccc1 (centres undefined) (Cbz-Asp(OBn)-[mTyr]-OMe; configuration not given here),88.5 µM (inactive),65.3 µM (inactive),–,65.8 µM (inactive),–,> 100 µM (inactive),> 100 µM (inactive),> 100 µM (inactive),> 100 µM (inactive),–,–,> 100 µM,> 100 µM (inactive),> 100 µM (inactive),–,> 100 µM (inactive),> 100 µM (inactive),–,46.1 µM (inactive)
CCn1c2ccccc2c2ccc(C3C(C(=O)OC)=C(C)NC(C)=C3C(=O)OC)cc21,33.7 µM (inactive),39 µM (inactive),51.5 µM (inactive),55.8 µM (inactive),> 100 µM (inactive),49.3 µM (inactive),66.1 µM (inactive),56 µM (inactive),37.8 µM (inactive),31.7 µM (inactive),35.8 µM (inactive),46.3 µM,55.1 µM (inactive),33 µM (inactive),–,67.8 µM (inactive),70.1 µM (inactive),30.2 µM (inactive),42.9 µM (inactive)
COC(=O)[C@@]1(C)CCC[C@]2(C(=O)O)C3Cc4occc4[C@H](C)[C@@H]3CCC21 (some centres undefined),29 µM (inactive),42.7 µM (inactive),–,71.1 µM (inactive),56.1 µM (inactive),91.6 µM (inactive),36 µM (inactive),> 100 µM (inactive),75.9 µM (inactive),33.6 µM (inactive),–,> 10 µM,34 µM (inactive),84.3 µM (inactive),–,31.1 µM (inactive),> 100 µM (inactive),42.9 µM (inactive),59.7 µM (inactive)
CC1=C(N2CC2)C(=O)c2ccccc2C1=O,0.394 µM (active),0.78 µM (active),0.918 µM (active),1.21 µM (inactive),2.52 µM (inactive),–,0.185 µM (active),–,–,0.618 µM (active),1.22 µM (inactive),1.05 µM,1.04 µM (active),2.06 µM (inactive),0.444 µM (active),0.895 µM (active),1.85 µM (inactive),1.69 µM (inactive),0.117 µM (active)
O=C1NCC2(CCNCC2)N1c1ccccc1,> 100 µM (inactive),–,> 100 µM (inactive),> 100 µM (inactive),–,–,> 100 µM (inactive),> 100 µM (inactive),> 100 µM (inactive),> 100 µM (inactive),> 100 µM (inactive),> 100 µM,> 100 µM (inactive),> 100 µM (inactive),> 100 µM (inactive),> 100 µM (inactive),> 100 µM (inactive),> 100 µM (inactive),> 100 µM (inactive)

# Source: ChEMBL document CHEMBL1201862, “PubChem BioAssay data set” (2004)
